Results on 1 molecule are retold here after patent US20030166673A1, “Medicines for the prevention and treatment of neurodegenerative diseases” (priority 2001, published 2003).

Where “and” joins values, the source holds several entries; their conditions need not be identical. Equal entries are not always repeated.

The test system of this experiment is vacuolized neurons in the PC/RS cortex (MK-801-induced neuronopathy). Description: Inhibitory effect on MK-801-induced neurodegeneration (number of vacuolized neurons). The experiment is classed as in vivo, mice (Std-ddY male). As for the experimental part:
The pharmacological test was carried out according to the method of D. F. Wozniak, et al. [Brain Research, Vol. 707, pp 165-178 (1996)].
The cerebrum was cut transversely from the anterior termination at approximately 4 mm to the posterior termination, and then embedded in cold polymerized resin (Technovit7100, manufactured by Kulzer in Germany). The slices containing the PC/RS cortex were obtained at four Anterior-Posterior levels at intervals of 300 μm from the exposed section of the block, and at each level two slices (3 μm in thickness) were consecutively obtained. The histological change (on Hematoxylin and eosin stain specimen) and the number of vacuolized neurons (on Nissl stain specimen) were observed by a light microscope for each 4 slices, respectively.

The mark [1] stands for this setting: individual mouse, Compound A 1 mg/kg p.o. 30 min before MK-801 1 mg/kg s.c., 5 h after MK-801, PC/RS cortex.

For `COc1cccc(-c2nccc3[nH]c(=O)c(-c4noc(C)n4)cc23)c1` [Compound A, 3-(5-Methyl-1,2,4-oxadiazol-3-yl)-5-(3-methoxyphenyl)-1,6-naphthyridin-2(1H)-one], under “group mean of three mice, Compound A 1 mg/kg p.o. + MK-801 1 mg/kg s.c., 5 h”, the “Vacuolization, Mean(/slice) Group” value is on record as 4.3 /slice. Besides, under setting [1], the “Vacuolization, Slice No. 1” value is 0 (2×) and 20; the “Vacuolization, Slice No. 2” value is 0 (2×) and 12; the “Vacuolization, Slice No. 3” value was 0 and 10 and 2; the “Vacuolization, Slice No. 4” value is 0 and 5 and 2. Besides, under “mean of 4 slices per mouse, Compound A 1 mg/kg p.o. + MK-801 1 mg/kg s.c., 5 h”, the “Vacuolization, Mean(/slice) Individual” value was 0.0 /slice and 11.8 /slice and 1.0 /slice. In addition, the “retardation or inhibition of neurodegeneration in the PC/RS cortex induced by MK-801 (in words)” value (mice, Compound A 1 mg/kg p.o. before MK-801 1 mg/kg s.c.) is “potent retardation or inhibition of neurodegeneration”.
